Results on 9 molecules are retold here after patent publication US20230104477A1, “USE OF DEHYDROASCORBIC ACID AGAINST NEMATODE INFECTION IN PLANTS” (Universiteit Gent, priority 2019, published 2023).

One assay relates to root defence pathways. Particulars: foliar application; cited from earlier work.
The next assay has as its system root parasitic nematodes. Particulars: root application; cited from earlier work.
For the next assay, the system named is M. graminicola. Description: Infection experiment with JA/ET mutant and biosynthesis inhibitors, foliar spray. Particulars: inhibitor alone sprayed on wild-type (DIECA 100 μM, AoA 12.5 mM) vs wild-type/control plants; 12 days after inoculation. Type of assay: in vivo, Meloidogyne graminicola. Here is the method: (§1) M. graminicola originally isolated in the Philippines (Batangas) was cultured on susceptible rice plants. Second stage juveniles (J2s) were extracted using a sieve/tray extraction method and inoculation was done as described in Nahar et al., (2011). For susceptibility assays, at least two independent experiments were carried out, each time including eight plants per treatment. Twelve days after inoculation (dai), roots were stained using acid fuchsine (Nahar et al., 2011) to count galls and number of nematodes in the roots.
(§2) Reduced Ascorbic acid (AA, 20 mM), dehydroascorbic acid (DHA, 20 mM), ascorbate oxidase (AO, 20 U/ml), methyl jasmonate (MeJA, 100 μM), aminooxyacetic acid (AoA, 12.5 mM), diethyldithiocarbamic acid (DIECA, 100 μM) and ethephon (100 μM) were purchased from Sigma and dissolved in water (except MeJA that was first dissolved in a drop of ETOH) to attain the indicated concentration.
(§3) For foliar application, all chemicals were dissolved in water and 0.02% (v/v) of Tween20 as a surfactant was added prior to spraying on aerial portions of the rice plants. Control plants were sprayed with distilled water containing 0.02% Tween20. Eight plants per treatment were sprayed until run-off with 6.5 mL of solution (at 24 h prior to nematode inoculation, in cases where infected plants were used). The substrate was covered to avoid direct contact with the roots and/or nematodes.

Assay [1] has as its system root-knot nematode M. graminicola. Description: Susceptibility assay on rice plants, foliar spray. The class given is in vivo, Meloidogyne graminicola. Particulars: foliar spray 24 h prior to inoculation (AA 20 mM, DHA 20 mM, AO 20 U/ml); 12 dai; vs control. Here is the method:
as §1, §2, §3

Assay [2] is described as follows: Ascorbate measurements in shoots and roots of foliar sprayed rice. Type of assay: in vivo, Oryza sativa cv. Nipponbare. Particulars: 24 h after foliar application; vs control plants. The procedure:
as §3
[…] In each assay, 100 mg of crushed material was used per sample, and at least 4 biological replicates were analyzed per treatment. Reduced and oxidized AA were measured according to the method described in Ueda et al., 2013. Absorbance was monitored using a microplate reader (TECAN—Infinite200pro).

A further assay deals with Heterodera schachtii. The assay is described as follows: Sugar beet tolerance to beet cyst nematode infection after foliar spray. Type of assay: in vivo. Particulars: three-weeks old sugar beet, foliar spray (AA 20 mM, AO 20 U/mL, DHA 20 mM), 250 H. schachtii per plant, 4 DAS (3 dai); for shoot height: DHA effect not statistically significant. Here is the method: (§4) Sugar beet—seeds of cv. Amarok were germinated on moist tissue for 4-5 days at 25° C. For longer experiments seedlings were transplanted to polyvinyl-chloride (PVC) tubes containing fine soil particles. All experiments were conducted in a plant growth room at 25° C., with a 16/8 h day/night regime. The plants were fertilized by supplying Hoagland solution as a source of nutrients 3 times a week.
BNC cysts were obtained from Iran and were maintained on sugar beet (cv. Amarok) plants. Cysts were obtained from stock cultures, by washing the infected soil and letting the cysts to float in water. Full cysts with eggs were hand-picked and allowed to dry before setting up for hatching. For second-stage juveniles (J2) to hatch, cysts were placed in 3 mM of […] and transferred to an incubator/shaker at a temperature of 25.5° C. at 70 rpm for 4 days (Kammerhofer et al., 2015). J2 were re-suspended in water and counted under a stereomicroscope. Around 250-300 J2 nematodes were inoculated per plant. One day before and after inoculation, plants were not supplied with any nutrients or water. To investigate the plant tolerance to BCN infection root length, shoot height, fresh root weight as well as the number of cysts were measured at different time points after spraying and/or inoculation. For all experiments, 8 individual plants were used per treatment.
as §2, §3

Another assay deals with rice seedlings. Description: Evaluation of seedling growth after drenching rice seedlings. Type of assay: in vivo, Oryza sativa cv. Nipponbare. Particulars: 3-days old rice seedlings drenched with 1 mL (AA 20 mM, DHA 20 mM, AO 20 U/ml); 5 days after drenching; vs water control. Here is the method: (§5) Rice—Seeds of wild-type rice Oryza sativa cv. Nipponbare were obtained from USDA (GSOR-100). Seeds were germinated on wet filter paper for 4-5 days at 30° C. and seedlings were then transferred to SAP-substrate (Sand mixed with Absorbent Polymer AquaPerla®, DCM, Belgium) and further grown at 28° C., under a light regime of (day/night) 12/12. Hoagland solution was given as a source of nutrients 3 times a week.
as §2
3-days old rice seedlings were drenched with 1 mL of AA (20 mM), AO (20 U/mL), DHA (20 mM) or water (H2O) as a negative control. Rice root length and dry root weight as well as the number of embryonic crown roots (ECR) were measured 5 days after drenching.

The test system of assay [3] is root-knot nematode Meloidogyne graminicola. The assay is described as follows: Susceptibility assay on rice plants, soil drench. The class given is in vivo. Particulars: soil drench 24 h prior to inoculation (AA 20 mM, DHA 20 mM, AO 20 U/mL); twelve days after inoculation; vs control. Here is the method:
as §1, §2
For soil application, 6.5 mL of each solution was drenched on the substrate, 24 h prior to nematode inoculation.

The test system is the same in assay [4]. The assay is described as follows: Root growth in rice after foliar spray, nematode-infected conditions (tolerance). The class given is in vivo. Particulars: 14-days old rice, foliar spray AO 20 U/mL, 250 nematodes per plant, time point not stated. The procedure: as §5, §1, §2, §3
The next assay concerns sugar beet plants. Description: Root and shoot growth in uninfected sugar beet plants after foliar spray. Type of assay: in vivo, Beta vulgaris cv. Amarok. Particulars: two-week old sugar beet, seven days later. Here is the method:
as §4, §2, §3

Where [5] appears, read: foliar spray, effect not statistically significant.

As for `O=P(O)(O)CCCl` [ethephon], the “activation of root defence pathways” value with root defence pathways was “can activate root defence pathways with varying efficacy”.
Turning to `CC(N)CC(=O)O` (stereo not drawn) [BABA, β-aminobutyric acid], in the assay on root parasitic nematodes, the “rice plant defence, tolerance or resistance against root parasitic nematodes” value (“rice plant defence” for short) is given as “enhances the rice plant defence system”.
For silicon, the “rice plant defence” value in the assay with root parasitic nematodes is given as “enhances the rice plant defence system”.
Regarding `CCN(CC)C(=S)S` [DIECA, diethyldithiocarbamic acid, reference compound], the number of galls result in the assay with M. graminicola is recorded as “significantly increased number of galls”.
For the molecule `CC/C=C\CC1C(=O)CCC1CC(=O)OC` (stereo not drawn) [MeJA, methyl jasmonate], in the assay on root defence pathways, the “activation of root defence pathways” value is “can activate root defence pathways with varying efficacy”.
As for `Cc1ncc(C[n+]2csc(CCO)c2C)c(N)n1` [thiamine], the “rice plant defence” value in the assay on root parasitic nematodes was “enhances the rice plant defence system”.
As for `O=C1O[C@H]([C@@H](O)CO)C(O)=C1O` [AA, ascorbic acid], in [1], the number of galls entry is “no significant differences” and the number of nematodes result is reported as “no significant differences”. For the same molecule, in [2], the “amount of reduced AA in roots” value was “no changes” and the “amount of reduced AA in shoots” value is “significantly increased”. Moreover, in the assay with Heterodera schachtii, the root length entry was “None of the other treatments (AA or AO) had significant effects”, the root weight result is on record as “None of the other treatments (AA or AO) had significant effects”, the shoot weight entry is “None of the other treatments (AA or AO) had significant effects” and the shoot height entry is “None of the other treatments (AA or AO) had significant effects”. In the assay with rice seedlings, the “number of embryonic crown roots (ECR)” value is recorded as “significantly fewer ECR” and the root length entry is given as “slightly shorter roots”. In [3], the number of galls result is reported as “significantly lower number of galls” and the number of nematodes result was “lower number of nematodes”.
With `NOCC(=O)O` [AoA, aminooxyacetic acid, reference compound], in the assay on M. graminicola, the number of galls entry is listed as “significantly higher number of galls”.

B1: AO: ascorbate oxidase, purchased from Sigma, used at 20 U/ml (protein, UniProt P37064 1-552, looked up)
L-ascorbate oxidase: SQIRHYKWEVEYMFWAPNCNENIVMGINGQFPGPTIRANAGDSVVVELTNKLHTEGVVIHWHGILQRGTPWADGTASISQCAINPGETFFYNFTVDNPGTFFYHGHLGMQRSAGLYGSLIVDPPQGKKEPFHYDGEINLLLSDWWHQSIHKQEVGLSSKPIRWIGEPQTILLNGRGQFDCSIAAKYDSNLEPCKLKGSESCAPYIFHVSPKKTYRIRIASTTALAALNFAIGNHQLLVVEADGNYVQPFYTSDIDIYSGESYSVLITTDQNPSENYWVSVGTRARHPNTPPGLTLLNYLPNSVSKLPTSPPPQTPAWDDFDRSKNFTYRITAAMGSPKPPVKFNRRIFLLNTQNVINGYVKWAINDVSLALPPTPYLGAMKYNLLHAFDQNPPPEVFPEDYDIDTPPTNEKTRIGNGVYQFKIGEVVDVILQNANMMKENLSETHPWHLHGHDFWVLGYGDGKFSAEEESSLNLKNPPLRNTVVIFPYGWTAIRFVADNPGVWAFHCHIEPHLHMGMGVVFAEGVEKVGRIPTKALACGGTAKSLINNPKNP
Regarding B1, in assay [1], the number of galls entry is “significantly lower number of galls” and the number of nematodes entry is on record as “lower number of nematodes”. Further, in [2], the “DHA level in roots” value is on record as “accumulating”; the “total levels of reduced and oxidized ascorbate in shoots” value is “slightly decreased”. Besides, the root length entry in assay [4] is reported as “slightly increased root length”. Moreover, in the assay with Heterodera schachtii, the root length entry is reported as “None of the other treatments (AA or AO) had significant effects”, the root weight entry is given as “None of the other treatments (AA or AO) had significant effects”, the shoot weight entry was “None of the other treatments (AA or AO) had significant effects” and the shoot height result is listed as “None of the other treatments (AA or AO) had significant effects”. In the assay with rice seedlings, the dry root weight entry is reported as “some positive effects”, the “number of embryonic crown roots (ECR)” value is given as “some positive effects” and the root length result is listed as “no root length effects”. For the same molecule, in [3], the number of galls result is “no significant difference” and the number of nematodes entry is given as “no significant difference”. Moreover, the root length entry in the assay with sugar beet plants (foliar spray (DHA 20 mM, AO 20 U/mL), vs water control) is listed as “significantly longer roots”. Moreover, in the assay with sugar beet plants (setting [5]), the fresh root weight entry is “positively affected” and the shoot length result was “positively affected”.
